According to US10975093B2, “Fused 1,4-diazepines as BET protein degraders” (THE REGENTS OF THE UNIVERSITY OF MICHIGAN, priority 2016, dated 2021):

What was measured:
Format in all cases: cell-based
MDA-MB-231 = experiment: Cell growth inhibition, CellTiter-Glo Luminescent Cell Viability Assay, MDA-MB-231; conditions: Homo sapiens, MDA-MB-231 cells, 4 days incubation
Summary of the method: (§1)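 Cells were seeded at 2,000/well with serially diluted compound and grown 4 days at 37° C, 5% CO2. Viability was read by CellTiter-Glo luminescence after 10-20 min at room temperature, and IC50 was fitted from the dose-response.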

RS4; 11 = experiment: Cell growth inhibition, CellTiter-Glo Luminescent Cell Viability Assay, RS4;11; conditions: Homo sapiens, 96 h, RS4;11 cells, 4 days incubation
Experimental: (§2) Cell growth inhibitory activity of representative Compounds of the Disclosure was determined in various cell lines using CellTiter-Glo® Luminescent Cell Viability Assay. Cells were seeded in 384-well white opaque cell culture plates at a density of 2,000 cells/well with serially diluted compounds and incubated at 37° C. in an atmosphere of 95% air and 5% CO2 for 4 days. Cell viability was determined using the CellTiter-Glo® Luminescent Cell Viability Assay Kit (Promega, Madison, Wis.) according to the manufacture's instruction. Briefly, a volume of CellTiter-Glo® Reagent equal to the volume of cell culture medium was added to each well, and then the plates were incubated at room temperature for 10-20 minutes. The luminescent signal was measured using a Tecan Infinite M1000 multimode microplate reader (Tecan, Morrisville, N.C.). The half maximal inhibitory concentration (IC50) was calculated using the GraphPad Prism 5 software (GraphPad Software, La Jolla, Calif.).

MDA-MB-468 = experiment: Cell growth inhibition, CellTiter-Glo Luminescent Cell Viability Assay, MDA-MB-468; conditions: Homo sapiens, 96 h, MDA-MB-468 cells, 4 days incubation
Experimental: as §2

MOLM-13 = experiment: Cell growth inhibition, CellTiter-Glo Luminescent Cell Viability Assay, MOLM-13; conditions: Homo sapiens, MOLM-13 cells, 4 days incubation
Summary of the method: as §1

| Compound | IC50 (MDA-MB-231; MDA-MB-231, 96 h) | IC50 (RS4; 11) | IC50 (MOLM-13; MOLM-13, 96 h) | IC50 (MDA-MB-468) | IC50 (MOLM-13; 96 h) | IC50 (MDA-MB-231; 96 h) |
| --- | --- | --- | --- | --- | --- | --- |
| Cc1c(C#Cc2ccc(OCCCCc3cccc4c3CN(C3CCC(=O)NC3=O)C4=O)cn2)sc2c1C(c1ccc(Cl)cc1)=N[C@@H](C)c1nnc(C)n1-2 (stereo partly drawn) [Cpd. No. 12, 3-(4-(4-((6-(((S)-4-(4-chlorophenyl)-3,6,9-trimethyl-6H-thieno[3,2-f][1,2,4]triazolo[4,3-a][1,4]diazepin-2-yl)ethynyl)pyridin-3-yl)oxy)butyl)-1-oxoisoindolin-2-yl)piperidine-2,6-dione] | – | – | – | 3 nM | 1.2 nM | 0.86 nM |
| Cc1c(C#Cc2cnn(CCCCN3C(=O)CCC(N4Cc5c(N)cccc5C4=O)C3=O)c2)sc2c1C(c1ccc(Cl)cc1)=N[C@@H](C)c1nnc(C)n1-2 (stereo partly drawn) [compound 165, 3-(4-amino-1-oxoisoindolin-2-yl)-1-(4-(4-(((S)-4-(4-chlorophenyl)-3,6,9-trimethyl-6H-thieno[3,2-f][1,2,4]triazolo[4,3-a][1,4]diazepin-2-yl)ethynyl)-1H-pyrazol-1-yl)butyl)piperidine-2,6-dione] | 12.7 nM | 3.7 nM | – | – | – | – |
| Cc1c(C#Cc2cnn(CCCC#Cc3cccc4c3CN(C3CCC(C)NC3=O)C4=O)c2)sc2c1C(c1ccc(Cl)cc1)=NCc1nnc(C)n1-2 (centres unmarked) [compound 161, 4-(5-(4-((4-(4-chlorophenyl)-3,9-dimethyl-6H-thieno[3,2-f][1,2,4]triazolo[4,3-a][1,4]diazepin-2-yl)ethynyl)-1H-pyrazol-1-yl)pent-1-yn-1-yl)-2-(6-methyl-2-oxopiperidin-3-yl)isoindolin-1-one] | 71.8 nM | 20.4 nM | – | – | – | – |
| Cc1c(C#Cc2ccc(OCCCCc3cccc4c3CN(C3CCC(=O)NC3=O)C4=O)cn2)sc2c1C(c1ccc(Cl)cc1)=NCc1nnc(C)n1-2 (centres unmarked) [Cpd. No. 11, 3-(4-(4-((6-((4-(4-chlorophenyl)-3,9-dimethyl-6H-thieno[3,2-f][1,2,4]triazolo[4,3-a][1,4]diazepin-2-yl)ethynyl)pyridin-3-yl)oxy)butyl)-1-oxoisoindolin-2-yl)piperidine-2,6-dione] | – | – | – | 51 nM | 11.4 nM | 18.1 nM |
| Cc1c(C#Cc2cnn(CCCCOc3cccc4c3CN(C3CCC(=O)NC3=O)C4=O)c2)sc2c1C(c1ccc(Cl)cc1)=N[C@@H](C)c1nnc(C)n1-2 (stereo partly drawn) [compound 147, 3-(4-(4-(4-(((S)-4-(4-chlorophenyl)-3,6,9-trimethyl-6H-thieno[3,2-f][1,2,4]triazolo[4,3-a][1,4]diazepin-2-yl)ethynyl)-1H-pyrazol-1-yl)butoxy)-1-oxoisoindolin-2-yl)piperidine-2,6-dione] | 0.08 nM | 0.05 nM | – | – | – | – |
| Cc1c(C#Cc2cnn(CCCCOc3cccc4c3C(=O)N(C3CCC(=O)NC3=O)C4=O)c2)sc2c1C(c1ccc(Cl)cc1)=N[C@@H](C)c1nnc(C)n1-2 (stereo partly drawn) [Cpd. No. 32, 4-(4-(4-(((S)-4-(4-chlorophenyl)-3,6,9-trimethyl-6H-thieno[3,2-f][1,2,4]triazolo[4,3-a][1,4]diazepin-2-yl)ethynyl)-1H-pyrazol-1-yl)butoxy)-2-(2,6-dioxopiperidin-3-yl)isoindoline-1,3-dione] | 2.5 nM | – | – | 3.5 nM | – | – |
| Cc1ncsc1-c1ccc([C@H](C)NC(=O)[C@@H]2C[C@@H](O)CN2C(=O)[C@@H](NC(=O)COCCOCCOCCn2cc(C#Cc3sc4c(c3C)C(c3ccc(Cl)cc3)=N[C@@H](C)c3nnc(C)n3-4)cn2)C(C)(C)C)cc1 [compound 200, (2S,4R)-1-((S)-2-(tert-butyl)-14-(4-(((S)-4-(4-chlorophenyl)-3,6,9-trimethyl-6H-thieno[3,2-f][1,2,4]triazolo[4,3-a][1,4]diazepin-2-yl)ethynyl)-1H-pyrazol-1-yl)-4-oxo-6,9,12-trioxa-3-azatetradecanoyl)-4-hydroxy-N-((S)-1-(4-(4-methylthiazol-5-yl)phenyl)ethyl)pyrrolidine-2-carboxamide] | 3.1 nM | – | 0.34 ± 0.03 nM | – | – | – |
| Cc1c(C#Cc2cnn(CCCC#Cc3cccc4c3CN(C3CCC(C)NC3=O)C4=O)c2)sc2c1C(c1ccc(Cl)cc1)=N[C@@H](C)c1nnc(C)n1-2 (stereo partly drawn) [compound 162, 4-(5-(4-(((S)-4-(4-chlorophenyl)-3,6,9-trimethyl-6H-thieno[3,2-f][1,2,4]triazolo[4,3-a][1,4]diazepin-2-yl)ethynyl)-1H-pyrazol-1-yl)pent-1-yn-1-yl)-2-(6-methyl-2-oxopiperidin-3-yl)isoindolin-1-one] | 22 nM | 2.4 nM | – | – | – | – |
| Cc1c(C#Cc2ccc(CCC#Cc3cccc4c3CN(C3CCC(=O)NC3=O)C4=O)cn2)sc2c1C(c1ccc(Cl)cc1)=NCc1nnc(C)n1-2 (centres unmarked) [compound 181, 3-(4-(4-(6-((4-(4-chlorophenyl)-3,9-dimethyl-6H-thieno[3,2-f][1,2,4]triazolo[4,3-a][1,4]diazepin-2-yl)ethynyl)pyridin-3-yl)but-1-yn-1-yl)-1-oxoisoindolin-2-yl)piperidine-2,6-dione] | 532 nM | – | > 1000 nM | – | – | – |

Further lines, with some results ahead:

| IC50 (MDA-MB-231; MDA-MB-231, 96 h) | IC50 (RS4; 11) | IC50 (MOLM-13; MOLM-13, 96 h) | Compound | IC50 (MDA-MB-468) | IC50 (MOLM-13; 96 h) | IC50 (MDA-MB-231; 96 h) |
| --- | --- | --- | --- | --- | --- | --- |
| 78.5 nM | 74 nM | – | Cc1c(C#Cc2cnn(CCCCNc3cccc4c3C(=O)N(C3CCC(=O)NC3)C4=O)c2)sc2c1C(c1ccc(Cl)cc1)=NCc1nnc(C)n1-2 (centres unmarked) [compound 164, 4-((4-(4-((4-(4-chlorophenyl)-3,9-dimethyl-6H-thieno[3,2-f][1,2,4]triazolo[4,3-a][1,4]diazepin-2-yl)ethynyl)-1H-pyrazol-1-yl)butyl)amino)-2-(6-oxopiperidin-3-yl)isoindoline-1,3-dione] | – | – | – |
| 284 nM | 216 nM | – | Cc1c(C#Cc2cnn(CCCC#Cc3cccc4c3C(=O)N(C3CCC(=O)NC3)C4=O)c2)sc2c1C(c1ccc(Cl)cc1)=NCc1nnc(C)n1-2 (centres unmarked) [compound 163, 4-(5-(4-((4-(4-chlorophenyl)-3,9-dimethyl-6H-thieno[3,2-f][1,2,4]triazolo[4,3-a][1,4]diazepin-2-yl)ethynyl)-1H-pyrazol-1-yl)pent-1-yn-yl)-2-(6-oxopiperidin-3-yl)isoindoline-1,3-dione] | – | – | – |
| 0.18 nM | – | 0.24 nM | Cc1c(C#Cc2ccc(CCCC#Cc3cccc4c3CN(C3CCC(=O)NC3=O)C4=O)cn2)sc2c1C(c1ccc(Cl)cc1)=N[C@@H](C)c1nnc(C)n1-2 (stereo partly drawn) [Cpd. No. 14, 3-(4-(5-(6-(((S)-4-(4-chlorophenyl)-3,6,9-trimethyl-6H-thieno[3,2-f][1,2,4]triazolo[4,3-a][1,4]diazepin-2-yl)ethynyl)pyridin-3-yl)pent-1-yn-1-yl)-1-oxoisoindolin-2-yl)piperidine-2,6-dione] | 1.1 nM | – | – |
| 3.7 nM | – | – | Cc1c(C#Cc2cnn(CCCC#Cc3cccc4c3C(=O)N(C3CCC(=O)NC3=O)C4=O)c2)sc2c1C(c1ccc(Cl)cc1)=N[C@@H](C)c1nnc(C)n1-2 (stereo partly drawn) [Cpd. No. 30, 4-(5-(4-(((S)-4-(4-chlorophenyl)-3,6,9-trimethyl-6H-thieno[3,2-f][1,2,4]triazolo[4,3-a][1,4]diazepin-2-yl)ethynyl)-1H-pyrazol-1-yl)pent-1-yn-1-yl)-2-(2,6-dioxopiperidin-3-yl)isoindoline-1,3-dione] | 3.6 nM | – | – |
| 0.39 nM | 0.13 nM | – | Cc1c(C#Cc2cnn(CCCCNc3cccc4c3CN(C3CCC(=O)NC3=O)C4=O)c2)sc2c1C(c1ccc(Cl)cc1)=N[C@@H](C)c1nnc(C)n1-2 (stereo partly drawn) [compound 145, 3-(4-((4-(4-(((S)-4-(4-chlorophenyl)-3,6,9-trimethyl-6H-thieno[3,2-f][1,2,4]triazolo[4,3-a][1,4]diazepin-2-yl)ethynyl)-1H-pyrazol-1-yl)butyl)amino)-1-oxoisoindolin-2-yl)piperidine-2,6-dione] | – | – | – |
| > 100 nM | – | > 100 nM | Cc1c(C#Cc2cnn(CCn3cnc(COc4cccc5c4CN(C4CCC(=O)NC4=O)C5=O)c3)c2)sc2c1C(c1ccc(Cl)cc1)=NCc1nnc(C)n1-2 (centres unmarked) [compound 154, 3-(4-((1-(2-(4-((4-(4-chlorophenyl)-3,9-dimethyl-6H-thieno[3,2-f][1,2,4]triazolo[4,3-a][1,4]diazepin-2-yl)ethynyl)-1H-pyrazol-1-yl)ethyl)-1H-imidazol-4-yl)methoxy)-1-oxoisoindolin-2-yl)piperidine-2,6-dione] | – | – | – |
| 7.4 nM | – | 6.4 nM | Cc1c(C#Cc2ccc(CCCC#Cc3cccc4c3CN(C3CCC(=O)NC3=O)C4=O)cn2)sc2c1C(c1ccc(Cl)cc1)=NCc1nnc(C)n1-2 (centres unmarked) [Cpd. No. 13, 3-(4-(5-(6-((4-(4-chlorophenyl)-3,9-dimethyl-6H-thieno[3,2-f][1,2,4]triazolo[4,3-a][1,4]diazepin-2-yl)ethynyl)pyridin-3-yl)pent-1-yn-1-yl)-1-oxoisoindolin-2-yl)piperidine-2,6-dione] | 32.4 nM | – | – |
| 10.1 nM | – | 6.8 nM | Cc1c(C#Cc2cnn(CCCCNc3cccc4c3C(=O)N(C3(F)CCC(=O)NC3=O)C4=O)c2)sc2c1C(c1ccc(Cl)cc1)=NCc1nnc(C)n1-2 (centres unmarked) [compound 144, 4-((4-(4-((4-(4-chlorophenyl)-3,9-dimethyl-6H-thieno[3,2-f][1,2,4]triazolo[4,3-a][1,4]diazepin-2-yl)ethynyl)-1H-pyrazol-1-yl)butyl)amino)-2-(3-fluoro-2,6-dioxopiperidin-3-yl)isoindoline-1,3-dione] | – | – | – |
